Laboratory results: patent publication US20230146675A1, “PYRIMIDO[5,4-d]PYRIMIDINE DERIVATIVES AS ENT INHIBITORS FOR THE TREATMENT OF CANCERS, AND COMBINATION THEREOF WITH ADENOSINE RECEPTOR ANTAGONISTS” (ITEOS BELGIUM SA, priority 2020, published 2023)

target: T1, human ENT1 (Homo sapiens, UniProt Q99808); test: ENT1 binding assay (competition with Sahenta-DY647 on JAR cells); design: JAR cells expressing ENT1 were bought from ATCC; host or cells: JAR cells; settings: binned IC50
T1 sequence (Q99808 1-456): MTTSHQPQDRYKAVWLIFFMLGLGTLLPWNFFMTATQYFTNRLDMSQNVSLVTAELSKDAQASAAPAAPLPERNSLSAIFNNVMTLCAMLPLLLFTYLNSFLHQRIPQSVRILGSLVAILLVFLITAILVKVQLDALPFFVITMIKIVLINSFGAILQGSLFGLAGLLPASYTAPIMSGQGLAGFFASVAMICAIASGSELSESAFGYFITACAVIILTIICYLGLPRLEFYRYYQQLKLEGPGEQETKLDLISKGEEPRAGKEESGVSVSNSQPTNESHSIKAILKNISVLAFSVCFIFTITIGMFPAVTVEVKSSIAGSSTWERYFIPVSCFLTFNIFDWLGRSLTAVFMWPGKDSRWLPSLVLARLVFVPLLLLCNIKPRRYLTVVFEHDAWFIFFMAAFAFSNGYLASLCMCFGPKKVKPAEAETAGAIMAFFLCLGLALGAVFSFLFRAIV
How it was run: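 JAR cells were incubated with test compounds and the fluorescent ligand Sahenta-DY647 in competition. Plates were washed twice by centrifugation (4 min, 400 rcf, 4 °C). Binding potency was derived from the final fluorescence.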

Compound	IC50
COCCN(CCOC)c1nc(N2CCN(c3ncn(C)n3)CC2)c2nc(N(CCOC)CCOC)nc(NCc3ccc(F)c(F)c3)c2n1 [Compound 227, N4-(3,4-difluorobenzyl)-N2,N2,N6,N6-tetrakis(2-methoxyethyl)-8-(4-(1-methyl-1H-1,2,4-triazol-3-yl)piperazin-1-yl)pyrimido[5,4-d]pyrimidine-2,4,6-triamine]	< 0.1 µM
COCCN(CCOC)c1nc(N2CCN(c3ncn(C)n3)CC2)c2nc(N(CCOC)CCOC)nc(NCc3cccc(S(N)(=O)=O)c3)c2n1 [Compound 228, 3-(((2,6-bis(bis(2-methoxyethyl)amino)-8-(4-(1-methyl-1H-1,2,4-triazol-3-yl)piperazin-1-yl)pyrimido[5,4-d]pyrimidin-4-yl)amino)methyl)benzenesulfonamide]	0.1 to 0.5 µM
COCCN(CCOC)c1nc(N2CCN(c3ncn(C)n3)CC2)c2nc(N(CCOC)CCOC)nc(NCc3cccc(C(N)=O)c3)c2n1 [Compound 229, 3-(((2,6-bis(bis(2-methoxyethyl)amino)-8-(4-(1-methyl-1H-1,2,4-triazol-3-yl)piperazin-1-yl)pyrimido[5,4-d]pyrimidin-4-yl)amino)methyl)benzamide]	0.1 to 0.5 µM
COCCN(CCOC)c1nc(N2CCN(C)C(=O)C2)c2nc(N(CCOC)CCOC)nc(N(C)Cc3ccccc3)c2n1 [Compound 230, 4-(8-(benzyl(methyl)amino)-2,6-bis(bis(2-methoxyethyl)amino)pyrimido[5,4-d]pyrimidin-4-yl)-1-methylpiperazin-2-one]	< 0.1 µM
COCCN(CCOC)c1nc(N2CCC(OC)CC2)c2nc(N(CCOC)CCOC)nc(N(C)Cc3cccc(OC(F)(F)F)c3)c2n1 [Compound 231, N2,N2,N6,N6-tetrakis(2-methoxyethyl)-8-(4-methoxypiperidin-1-yl)-N4-methyl-N4-(3-(trifluoromethoxy)benzyl)pyrimido[5,4-d]pyrimidine-2,4,6-triamine]	0.1 to 0.5 µM

Further lines, results first:

IC50	Compound
< 0.1 µM	CCOCCN(CCOCC)c1nc(N2CCN(C)C(=O)C2)c2nc(N(CCOCC)CCOCC)nc(N(C)Cc3ccccc3)c2n1 [Compound 232, 4-(8-(benzyl(methyl)amino)-2,6-bis(bis(2-ethoxyethyl)amino)pyrimido[5,4-d]pyrimidin-4-yl)-1-methylpiperazin-2-one]
< 0.1 µM	COCCN(CCOC)c1nc(N2CCN(C)C(=O)C2)c2nc(N(CCOC)CCOC)nc(N(C)Cc3cccc(F)c3)c2n1 [Compound 233, 4-(2,6-bis(bis(2-methoxyethyl)amino)-8-((3-fluorobenzyl)(methyl)amino)pyrimido[5,4-d]pyrimidin-4-yl)-1-methylpiperazin-2-one]
< 0.1 µM	COCCN(CCOC)c1nc(N2CCN(C)C(=O)C2)c2nc(N(CCOC)CCOC)nc(N(C)Cc3cccc(Cl)c3)c2n1 [Compound 234, 4-(2,6-bis(bis(2-methoxyethyl)amino)-8-((3-chlorobenzyl)(methyl)amino)pyrimido[5,4-d]pyrimidin-4-yl)-1-methylpiperazin-2-one]
< 0.1 µM	COCCN(CCOC)c1nc(N2CCN(C)C(=O)C2)c2nc(N(CCOC)CCOC)nc(N(C)Cc3cccc(OC)c3)c2n1 [Compound 235, 4-(2,6-bis(bis(2-methoxyethyl)amino)-8-((3-methoxybenzyl)(methyl)amino)pyrimido[5,4-d]pyrimidin-4-yl)-1-methylpiperazin-2-one]
< 0.1 µM	COCCN(CCOC)c1nc(N2CCN(C)C(=O)C2)c2nc(N(CCOC)CCOC)nc(N(C)Cc3cccc(OC(F)(F)F)c3)c2n1 [Compound 236, 4-(2,6-bis(bis(2-methoxyethyl)amino)-8-(methyl(3-(trifluoromethoxy)benzyl)amino)pyrimido[5,4-d]pyrimidin-4-yl)-1-methylpiperazin-2-one]
< 0.1 µM	COCCN(CCOC)c1nc(N2CCN(C)C(=O)C2)c2nc(N(CCOC)CCOC)nc(N(C)Cc3cccc(C#N)c3)c2n1 [Compound 237, 3-(((2,6-bis(bis(2-methoxyethyl)amino)-8-(4-methyl-3-oxopiperazin-1-yl)pyrimido[5,4-d]pyrimidin-4-yl)(methyl)amino)methyl)benzonitrile]
